“And” between values parts separate entries of the source, which are not always exact repeats. Identical values can stand only once.
How the values were obtained:
Vasopressin V2 receptor = Vasopressin V2 receptor (Homo sapiens, UniProt P30518)
[1] = molecular target: Muscarinic acetylcholine receptor M3 (Homo sapiens, UniProt P20309)
Melanocortin receptor 3 = Melanocortin receptor 3 (Homo sapiens, UniProt P41968)
[2] = molecular target: 5-hydroxytryptamine receptor 2B (Homo sapiens, UniProt P41595); type: functional, cell-based
Sequence of 5-hydroxytryptamine receptor 2B (P41595 whole entry): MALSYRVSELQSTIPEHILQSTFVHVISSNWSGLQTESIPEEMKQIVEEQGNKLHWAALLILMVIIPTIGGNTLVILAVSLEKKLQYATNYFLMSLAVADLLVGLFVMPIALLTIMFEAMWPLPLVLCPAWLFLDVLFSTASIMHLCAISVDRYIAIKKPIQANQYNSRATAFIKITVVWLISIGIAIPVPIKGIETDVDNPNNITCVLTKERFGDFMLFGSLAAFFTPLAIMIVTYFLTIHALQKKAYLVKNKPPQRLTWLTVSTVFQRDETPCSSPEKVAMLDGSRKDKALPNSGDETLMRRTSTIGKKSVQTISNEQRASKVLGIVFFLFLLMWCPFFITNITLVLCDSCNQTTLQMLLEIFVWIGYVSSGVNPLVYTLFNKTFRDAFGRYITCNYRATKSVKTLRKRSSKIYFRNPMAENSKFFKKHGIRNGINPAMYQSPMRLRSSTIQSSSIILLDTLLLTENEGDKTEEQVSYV

[3] = molecular target: cGMP-inhibited 3',5'-cyclic phosphodiesterase 3A (Homo sapiens, UniProt Q14432); type: functional
Sequence of cGMP-inhibited 3',5'-cyclic phosphodiesterase 3A (Q14432 whole entry): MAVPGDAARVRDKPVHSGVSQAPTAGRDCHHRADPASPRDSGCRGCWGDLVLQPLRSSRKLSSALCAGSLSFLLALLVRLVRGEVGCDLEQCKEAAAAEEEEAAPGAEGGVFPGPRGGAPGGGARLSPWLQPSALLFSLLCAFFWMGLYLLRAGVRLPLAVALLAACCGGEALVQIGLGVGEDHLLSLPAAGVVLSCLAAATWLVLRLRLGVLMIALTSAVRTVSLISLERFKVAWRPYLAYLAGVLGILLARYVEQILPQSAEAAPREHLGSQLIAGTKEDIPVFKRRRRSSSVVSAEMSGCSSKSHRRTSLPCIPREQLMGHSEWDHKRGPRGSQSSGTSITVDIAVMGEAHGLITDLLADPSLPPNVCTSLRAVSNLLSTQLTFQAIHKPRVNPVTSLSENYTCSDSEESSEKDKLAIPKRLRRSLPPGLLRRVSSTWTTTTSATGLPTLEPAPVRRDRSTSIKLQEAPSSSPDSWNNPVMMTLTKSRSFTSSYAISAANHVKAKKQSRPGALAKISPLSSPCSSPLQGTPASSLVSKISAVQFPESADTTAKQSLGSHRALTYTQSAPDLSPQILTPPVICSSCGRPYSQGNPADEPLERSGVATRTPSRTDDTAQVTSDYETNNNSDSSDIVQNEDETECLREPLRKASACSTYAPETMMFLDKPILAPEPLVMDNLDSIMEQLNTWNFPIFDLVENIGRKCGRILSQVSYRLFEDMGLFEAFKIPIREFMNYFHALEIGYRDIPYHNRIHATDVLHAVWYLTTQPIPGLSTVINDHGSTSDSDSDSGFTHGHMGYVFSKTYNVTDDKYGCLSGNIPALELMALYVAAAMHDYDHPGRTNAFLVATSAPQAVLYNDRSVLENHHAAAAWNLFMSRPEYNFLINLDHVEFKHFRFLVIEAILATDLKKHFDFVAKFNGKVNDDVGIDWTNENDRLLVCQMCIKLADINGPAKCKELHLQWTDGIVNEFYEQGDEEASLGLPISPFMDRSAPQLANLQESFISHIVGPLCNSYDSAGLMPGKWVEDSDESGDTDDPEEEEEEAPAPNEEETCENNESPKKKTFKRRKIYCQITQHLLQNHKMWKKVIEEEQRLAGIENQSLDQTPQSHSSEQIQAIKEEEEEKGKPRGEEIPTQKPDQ

[4] = molecular target: T1, Alpha-1A adrenergic receptor (Homo sapiens, UniProt P35348); type: functional, cell-based
T1 sequence (P35348 whole entry): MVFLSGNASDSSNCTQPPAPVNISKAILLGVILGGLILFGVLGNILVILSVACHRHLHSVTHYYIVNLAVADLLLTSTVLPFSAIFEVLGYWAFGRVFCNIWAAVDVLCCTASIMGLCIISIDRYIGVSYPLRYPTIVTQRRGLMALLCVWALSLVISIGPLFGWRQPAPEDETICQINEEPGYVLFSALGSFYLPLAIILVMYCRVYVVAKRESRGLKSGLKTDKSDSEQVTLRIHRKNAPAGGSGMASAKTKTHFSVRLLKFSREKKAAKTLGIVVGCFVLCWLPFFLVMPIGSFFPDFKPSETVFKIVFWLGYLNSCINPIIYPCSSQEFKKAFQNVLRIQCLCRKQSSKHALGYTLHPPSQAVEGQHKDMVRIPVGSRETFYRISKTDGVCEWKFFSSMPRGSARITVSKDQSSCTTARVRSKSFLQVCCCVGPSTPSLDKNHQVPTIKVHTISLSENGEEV

[5] = molecular target: T2, Type-1 angiotensin II receptor (Homo sapiens, UniProt P30556)
T2 sequence (P30556 whole entry): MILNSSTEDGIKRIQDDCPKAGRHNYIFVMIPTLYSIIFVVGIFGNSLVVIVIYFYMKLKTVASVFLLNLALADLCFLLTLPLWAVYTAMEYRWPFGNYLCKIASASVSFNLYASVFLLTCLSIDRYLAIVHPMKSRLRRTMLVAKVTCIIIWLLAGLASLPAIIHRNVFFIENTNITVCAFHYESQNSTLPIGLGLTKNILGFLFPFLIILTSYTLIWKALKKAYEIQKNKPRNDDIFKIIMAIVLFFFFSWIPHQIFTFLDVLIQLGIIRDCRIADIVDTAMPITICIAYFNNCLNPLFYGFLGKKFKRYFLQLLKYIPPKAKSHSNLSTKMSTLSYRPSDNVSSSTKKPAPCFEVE

[6] = molecular target: T3, Neuropeptide Y receptor type 1 (Homo sapiens, UniProt P25929)
T3 sequence (P25929 whole entry): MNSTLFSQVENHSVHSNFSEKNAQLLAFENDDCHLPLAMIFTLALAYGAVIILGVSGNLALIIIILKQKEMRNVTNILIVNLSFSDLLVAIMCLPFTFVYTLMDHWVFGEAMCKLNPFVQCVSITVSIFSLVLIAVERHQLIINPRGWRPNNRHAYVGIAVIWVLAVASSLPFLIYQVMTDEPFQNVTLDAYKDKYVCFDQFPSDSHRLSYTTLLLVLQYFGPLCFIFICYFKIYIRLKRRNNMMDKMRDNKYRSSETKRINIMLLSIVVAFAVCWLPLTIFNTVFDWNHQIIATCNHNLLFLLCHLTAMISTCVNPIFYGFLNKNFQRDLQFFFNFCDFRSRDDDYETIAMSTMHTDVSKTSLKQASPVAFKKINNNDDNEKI

Histamine H2 receptor = Histamine H2 receptor (Homo sapiens, UniProt P25021); type: functional, cell-based
Sequence of Histamine H2 receptor (P25021 whole entry): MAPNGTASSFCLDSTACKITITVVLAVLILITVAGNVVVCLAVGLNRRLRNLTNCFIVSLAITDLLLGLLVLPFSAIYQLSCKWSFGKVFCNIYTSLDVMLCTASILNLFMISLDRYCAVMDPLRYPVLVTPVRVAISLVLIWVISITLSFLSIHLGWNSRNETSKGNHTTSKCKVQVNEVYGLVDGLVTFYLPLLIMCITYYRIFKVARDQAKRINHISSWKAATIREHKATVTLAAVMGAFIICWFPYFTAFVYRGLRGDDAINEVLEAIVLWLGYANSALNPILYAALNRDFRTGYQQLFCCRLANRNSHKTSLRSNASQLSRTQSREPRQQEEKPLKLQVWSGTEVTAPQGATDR

[7] = molecular target: Sodium-dependent dopamine transporter (Homo sapiens, UniProt Q01959)
Sequence of Sodium-dependent dopamine transporter (Q01959 whole entry): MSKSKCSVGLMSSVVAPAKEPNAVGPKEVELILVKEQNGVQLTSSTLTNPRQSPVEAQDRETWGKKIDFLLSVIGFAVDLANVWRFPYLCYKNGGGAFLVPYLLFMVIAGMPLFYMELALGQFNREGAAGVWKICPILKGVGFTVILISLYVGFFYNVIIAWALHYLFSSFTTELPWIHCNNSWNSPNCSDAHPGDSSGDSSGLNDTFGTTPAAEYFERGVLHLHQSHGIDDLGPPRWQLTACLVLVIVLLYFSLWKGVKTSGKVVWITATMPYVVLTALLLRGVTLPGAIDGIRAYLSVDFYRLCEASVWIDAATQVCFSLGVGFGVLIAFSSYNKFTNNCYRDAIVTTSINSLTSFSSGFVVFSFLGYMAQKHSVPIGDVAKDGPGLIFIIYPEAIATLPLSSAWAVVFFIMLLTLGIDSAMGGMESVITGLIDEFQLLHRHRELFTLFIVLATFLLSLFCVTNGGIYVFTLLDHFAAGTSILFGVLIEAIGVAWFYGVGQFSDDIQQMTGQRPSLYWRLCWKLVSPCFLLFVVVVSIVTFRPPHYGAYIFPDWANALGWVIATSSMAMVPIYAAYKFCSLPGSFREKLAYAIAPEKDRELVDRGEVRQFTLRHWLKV

[8] = molecular target: 5-hydroxytryptamine receptor 2A (Homo sapiens, UniProt P28223); type: functional, cell-based
Sequence of 5-hydroxytryptamine receptor 2A (P28223 whole entry): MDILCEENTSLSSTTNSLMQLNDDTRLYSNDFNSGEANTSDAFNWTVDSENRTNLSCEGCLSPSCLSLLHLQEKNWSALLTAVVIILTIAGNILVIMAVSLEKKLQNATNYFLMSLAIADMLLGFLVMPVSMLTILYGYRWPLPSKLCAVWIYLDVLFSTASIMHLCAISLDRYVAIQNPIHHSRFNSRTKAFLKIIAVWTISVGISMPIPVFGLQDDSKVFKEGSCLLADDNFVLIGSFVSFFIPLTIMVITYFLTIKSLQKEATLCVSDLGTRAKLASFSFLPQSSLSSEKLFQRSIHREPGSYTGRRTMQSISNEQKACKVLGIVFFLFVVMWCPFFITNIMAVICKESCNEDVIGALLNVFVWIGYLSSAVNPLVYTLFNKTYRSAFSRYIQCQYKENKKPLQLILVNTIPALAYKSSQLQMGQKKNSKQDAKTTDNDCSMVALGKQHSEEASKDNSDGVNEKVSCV

Glucocorticoid receptor = molecular target: T4, Glucocorticoid receptor (Homo sapiens, UniProt P04150)
T4 sequence (P04150 whole entry): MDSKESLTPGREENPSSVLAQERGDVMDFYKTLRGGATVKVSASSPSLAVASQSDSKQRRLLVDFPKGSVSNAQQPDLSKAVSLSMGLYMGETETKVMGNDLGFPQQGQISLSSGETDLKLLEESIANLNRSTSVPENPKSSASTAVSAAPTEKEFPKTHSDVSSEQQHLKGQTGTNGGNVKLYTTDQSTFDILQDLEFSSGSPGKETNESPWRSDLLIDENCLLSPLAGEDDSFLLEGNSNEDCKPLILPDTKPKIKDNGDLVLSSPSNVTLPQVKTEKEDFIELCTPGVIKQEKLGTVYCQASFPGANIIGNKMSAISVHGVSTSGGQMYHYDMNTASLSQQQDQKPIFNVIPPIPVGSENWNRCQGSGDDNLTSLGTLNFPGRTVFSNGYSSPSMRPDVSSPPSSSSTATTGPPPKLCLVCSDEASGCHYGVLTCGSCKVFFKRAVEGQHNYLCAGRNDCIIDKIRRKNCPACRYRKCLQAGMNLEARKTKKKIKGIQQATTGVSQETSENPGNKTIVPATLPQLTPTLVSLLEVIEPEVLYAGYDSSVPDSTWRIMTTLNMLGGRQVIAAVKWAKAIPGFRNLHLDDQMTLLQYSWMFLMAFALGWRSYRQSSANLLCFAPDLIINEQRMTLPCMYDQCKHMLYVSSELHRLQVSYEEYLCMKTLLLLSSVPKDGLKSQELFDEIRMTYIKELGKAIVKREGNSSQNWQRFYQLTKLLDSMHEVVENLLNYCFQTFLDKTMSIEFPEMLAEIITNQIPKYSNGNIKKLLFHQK

[9] = molecular target: T5, Alpha-2C adrenergic receptor (Homo sapiens, UniProt P18825); type: functional
T5 sequence (P18825 whole entry): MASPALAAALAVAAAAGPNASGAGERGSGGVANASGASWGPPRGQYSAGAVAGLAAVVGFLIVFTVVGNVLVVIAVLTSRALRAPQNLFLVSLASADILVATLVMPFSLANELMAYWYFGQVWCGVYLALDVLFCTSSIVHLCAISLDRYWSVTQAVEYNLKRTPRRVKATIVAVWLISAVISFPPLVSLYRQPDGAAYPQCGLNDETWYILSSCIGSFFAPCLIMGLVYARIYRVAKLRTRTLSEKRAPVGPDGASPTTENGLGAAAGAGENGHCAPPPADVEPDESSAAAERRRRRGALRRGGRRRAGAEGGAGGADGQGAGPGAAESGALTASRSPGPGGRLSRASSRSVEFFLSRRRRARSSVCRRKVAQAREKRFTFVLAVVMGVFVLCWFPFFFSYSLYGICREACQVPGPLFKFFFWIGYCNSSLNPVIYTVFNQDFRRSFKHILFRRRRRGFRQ
Also: assay procedure not described here.

Sequence of Muscarinic acetylcholine receptor M3 (P20309 whole entry): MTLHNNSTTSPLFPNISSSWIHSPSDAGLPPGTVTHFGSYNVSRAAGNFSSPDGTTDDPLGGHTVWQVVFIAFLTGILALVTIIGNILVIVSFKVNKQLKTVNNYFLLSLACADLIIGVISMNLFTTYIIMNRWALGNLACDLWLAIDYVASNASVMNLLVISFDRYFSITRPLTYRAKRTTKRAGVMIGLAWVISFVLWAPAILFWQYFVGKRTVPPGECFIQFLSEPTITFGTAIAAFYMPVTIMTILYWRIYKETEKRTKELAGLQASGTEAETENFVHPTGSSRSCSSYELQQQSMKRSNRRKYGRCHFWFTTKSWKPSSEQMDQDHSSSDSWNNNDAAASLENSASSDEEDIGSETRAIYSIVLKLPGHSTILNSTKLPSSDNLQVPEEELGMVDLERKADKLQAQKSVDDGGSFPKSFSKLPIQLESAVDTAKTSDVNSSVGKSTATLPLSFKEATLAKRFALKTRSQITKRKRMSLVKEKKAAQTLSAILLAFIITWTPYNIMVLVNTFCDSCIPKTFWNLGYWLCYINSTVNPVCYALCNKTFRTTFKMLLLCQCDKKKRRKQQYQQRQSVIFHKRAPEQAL
Sequence of Melanocortin receptor 3 (P41968 whole entry): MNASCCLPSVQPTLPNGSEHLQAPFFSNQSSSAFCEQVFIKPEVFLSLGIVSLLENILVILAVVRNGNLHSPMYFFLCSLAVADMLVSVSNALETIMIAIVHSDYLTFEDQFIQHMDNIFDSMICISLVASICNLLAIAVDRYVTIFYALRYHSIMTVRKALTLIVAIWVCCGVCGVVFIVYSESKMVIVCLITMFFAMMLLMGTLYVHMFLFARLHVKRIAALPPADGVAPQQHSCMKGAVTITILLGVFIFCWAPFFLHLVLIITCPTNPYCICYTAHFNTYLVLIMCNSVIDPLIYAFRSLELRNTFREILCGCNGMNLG
Sequence of Vasopressin V2 receptor (P30518 whole entry): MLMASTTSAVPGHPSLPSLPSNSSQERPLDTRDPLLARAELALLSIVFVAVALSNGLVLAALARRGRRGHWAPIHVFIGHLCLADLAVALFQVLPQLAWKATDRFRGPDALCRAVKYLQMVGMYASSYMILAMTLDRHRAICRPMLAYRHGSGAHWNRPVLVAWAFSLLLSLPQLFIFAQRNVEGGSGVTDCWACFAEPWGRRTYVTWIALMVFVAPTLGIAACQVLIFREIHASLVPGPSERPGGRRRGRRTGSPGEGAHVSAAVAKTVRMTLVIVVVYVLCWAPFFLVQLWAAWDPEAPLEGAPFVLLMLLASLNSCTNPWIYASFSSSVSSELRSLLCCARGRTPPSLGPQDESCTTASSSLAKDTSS

SMILES	AC50 (Vasopressin V2 receptor) [µM]	AC50 [1] [µM]	AC50 (Melanocortin receptor 3) [µM]	AC50 [2] [µM]	AC50 [3] [µM]	AC50 [4] [µM]	AC50 [5] [µM]	AC50 [6] [µM]	AC50 (Histamine H2 receptor) [µM]	AC50 [7]	AC50 [8] [µM]	AC50 (Glucocorticoid receptor) [µM]	AC50 [9] [µM]
Cc1ccc2c(-c3ccccc3)nc(=O)n(C(C)C)c2c1 [PROQUAZONE]	> 30	> 30	> 30	> 30	> 30	> 30	> 30	> 30	> 30	> 30 µM	> 30	> 30	> 30
CN1CCN(c2c(F)cc3c(=O)c(C(=O)O)cn4c3c2SCC4)CC1 [RUFLOXACIN]	> 30	> 30	> 30	> 30	> 30	> 30	> 30	> 30	> 30	> 30 µM	> 30	> 30	> 30
COc1cc2c(Nc3ccc(Br)cc3F)ncnc2cc1OCC1CCN(C)CC1 [VANDETANIB]	> 30	24	> 30	> 30	> 30	22	> 30	> 30	> 30	14 µM	14	> 30	0.856

Further lines, results first:

AC50 (Vasopressin V2 receptor) [µM]	AC50 [1] [µM]	AC50 (Melanocortin receptor 3) [µM]	AC50 [2] [µM]	AC50 [3] [µM]	AC50 [4] [µM]	AC50 [5] [µM]	AC50 [6] [µM]	AC50 (Histamine H2 receptor) [µM]	AC50 [7]	AC50 [8] [µM]	AC50 (Glucocorticoid receptor) [µM]	AC50 [9] [µM]	SMILES
> 30	0.83	> 30	> 30	> 30	> 30	> 30	> 30	> 30	16 µM	26	> 30	> 30	CCCOC(C(=O)OC1CCN(C)CC1)(c1ccccc1)c1ccccc1 [PROPIVERINE]
> 30	> 30	> 30	> 30	> 30	2	> 30	> 30	> 30	19.5 µM and 12.3 µM	> 30	> 30	> 30	CC(NCCc1ccc(O)cc1)C(O)c1ccc(O)cc1 (stereo unspecified) [RITODRINE]
> 10	> 30	> 10	> 10	> 30	> 30	> 10	> 10	> 10	19.5 µM	> 10	> 10	> 10	C=CC(N)CCC(=O)O (stereo unspecified) [VIGABATRIN]
> 30	> 30	> 30	> 30	> 30	> 30	> 30	> 30	> 30	> 30 µM	> 30	> 30	> 30	N#C[C@@H]1CCCN1C(=O)CNC12CC3CC(CC(O)(C3)C1)C2 [VILDAGLIPTIN]
